Assay results taken from patent US20110039793A1, “Application of ginsenoside Rb1 in preparing medicaments for treating dilated cardiomyopathy” (priority 2008, published 2011).

System: cTnT^R141W transgenic dilated cardiomyopathy mice model
Assay: Cardiac gene expression, RT-PCR method
Format: in vivo
Conditions: cardiac tissue, long-term administration
Experimental: Effects on some cardiac gene expression of the mice model with dilated cardiomyopathy after a long-term administration of ginsenoside Rb1 (RT-PCR method)
1) Pulverize the tissue in liquid nitrogen, and then add 1 ml Trizol liquid into the 50-100 mg tissue;
2) Place the grinded liquid at RT for 5 min, add 0.2 ml chloroform into the grinded liquid, tightly cap the centrifuge tube, and violently vortex the centrifuge tube for 15 sec;
3) Remove 0.5 ml the upper transparent liquid into a new centrifuge tube, add 0.5 ml isopropanol, placed at RT for 10 min, and centrifugate at 4° C., 12000 g for 10 min;
4) Remove the supernatant, add 1 ml 75% ethanol and centrifugate at 4° C., 7500 g for 5 min;
5) Carefully remove the supernatant, then dried at RT for 5-10 min, and then dissolved in DEPC-treated water.
2. RT-PCR (Reverse Transcription—Polymerase Chain Reaction)
Add the above mixture into the tube in step 1), then incubated at 42° C. for 2 min;
3) Add 1 μl SuperScript, II RT at 42° C. for 50 min;
4) Placed on ice for 15 min;
5) Add 1 μl RNase H, then incubated at 37° C. for 20 min;
6) PCR reaction system is shown as follow:
7) General conditions of PCR are shown as follow. Pre-denaturation at 94° C. for […], and extension at 72° C. for […] And the annealing temperature, the annealing time, the primer sequences and the cyclic numbers are shown in Table 2.
wherein, Gapdh serves as the loading control.

For CC(C)=CCC[C@](C)(O[C@@H]1O[C@H](CO[C@@H]2O[C@H](CO)[C@@H](O)[C@H](O)[C@H]2O)[C@@H](O)[C@H](O)[C@H]1O)[C@H]1CC[C@]2(C)[C@@H]1[C@H](O)C[C@@H]1[C@@]3(C)CC[C@H](O[C@@H]4O[C@H](CO)[C@@H](O)[C@H](O)[C@H]4O[C@@H]4O[C@H](CO)[C@@H](O)[C@H](O)[C@H]4O)C(C)(C)[C@@H]3CC[C@]12C [Rb1, ginsenoside Rb1], the “expression of Cx40” value was “increase”, the “expression of E-cadherin” value was “increase” and the “expression of Itga8” value was “decrease”. The “expression of Itgbp” value was “decrease”, the “expression of P-cadherin” value was “increase” and the “expression of the fibroblast growth factor FGF” value (FGF2, 7, 8, 10) was “improve”.
